Read-outs that look alike come from different tables or passages of the source.
Legend:
fat cells = details: cited from earlier work
[1] = cited from earlier work
[2] = test system: cyclic AMP phosphodiesterase; details: present in fat cells; high concentrations; cited from earlier work
[3] = cited from earlier work; remark: listed apart in the source
adipocytes (fat cells) = assay: Adipocytes destroyed per application of DMSO; type: in vivo
serum cholesterol = details: cats, given with water along with a cholesterol-based diet; cited from earlier work
[4] = test system: cellulite and adiposities; assay: Study of efficacy of topically delivered DMSO for eliminating cellulite and adiposities; type: in vivo, human
Text: This study was exclusively designed to determine the efficacy and safety of DMSO delivered in several manners and in different concentrations for eliminating cellulite and adiposities.
This is a multicentric, prospective, longitudinal study, where clinical and instrumental parameters are used to detect results regarding different formulations and application forms performed. It is not possible to perform a double-blind study with placebo due to the strong odor of DMSO present in formulations, easy to identify.
A group of 145 subjects, with ages ranging from 18 to 55 years (average 36.5 y.o.), having cellulite for at least 2 years, were recruited from April, 2008 until July, 2008.
Inclusion criteria were: presence of cellulite (stages 1, 2, 3, and 4) in subjects of groups A and B; accentuated abdominal fat in the subjects of the group C; age ranging from 18 to 55 years old and interest in entering the study.
Exclusion criteria were: after liposculpture, other treatments anti-cellulite ongoing or 30 days before entering the study, pregnant and nursing women, cancer, people with hormonal alterations, endocrinological disorders, and people under hormonal or endocrinal treatment.
(§1) 145 subjects were randomized in 3 groups and received 3 different treatments according to established method. Group A entered 29 female subjects having Dermal Paniculopathy (cellulite) stages 1 and 2, Group B entered 58 female subjects with Dermal Paniculopathy (cellulite) stages 3 and 4, and Group C entered 58 subjects, 35 female and 23 male, all having pronounced abdominal fat.
(§2) The three products were formulated as follows: group A consisted in an aqueous solution of DMSO at 20% and aerosol spray to 5%, group B consisted in an aqueous solution of DMSO at 50% and aerosol spray 5%, and group C consisted in an aqueous solution of DMSO at 90% and aerosol spray at 5%.
The aqueous solution was used in the massage applied before the delivery of spray. Each massage session lasted 45 minutes in average.
After massage, the spray was applied at 30 cm (11.80 in) of distance for approximately 5 seconds in each site.
After the procedure as above, a drainage massage was applied for 20 minutes.
In total, each session last 1 hour and 30 minutes in average.
Two sessions were applied per week during 5 weeks.
All subjects were analyzed at the end of each session, and especially after the 10 sessions.
Evaluation methods were: digital photographs (before and after), clinical observation, measurement of thigh circumference, pinching test (for pain), measurement of fat with plicometer/adipometer, measurement of abdominal circumference, measurement of hips and waist circumference, and questionnaire with questions about swelling, pain and heaviness in the legs, cellulite appearance, weight, general efficacy of the product, tolerability, satisfaction with the treatment, sensation of wellbeing, increased diuresis, urine color, among others.

[5] = parameters: species or system human; details: in vivo
Text: as §1, §2
The aqueous solution was used in the massage applied before the delivery of spray. Each massage session lasted 45 minutes in average. […]
Adverse reactions commonly reported in a period of 2 hours right after the application were: nausea (27 subjects or 19%), headache (15 subjects or 11%), feeling of burn in application site (11 subjects or 8%), itch and redness in application site (14 subjects or 10%), hypotension (7 subjects or 5%), odor and taste similar to garlic or corn (136 subjects or 98%), dry mouth (32 subjects or 23%), increased diuresis (98 subjects or 70%), strong urine color and odor (68 subjects or 49%). These reactions were evaluated as light and transitory.

[6] = cited from earlier work; remark: listed apart in the source
[7] = humans, after DMSO administration
[8] = humans, dermal delivery of a DMSO solution at 70%
[9] = topical DMSO 80%, gram/kg per day, 60 subjects, 14 days
[10] = humans, plasma, dermal delivery of a DMSO solution at 70%
[11] = % of subjects in this category after 10 topical sessions
[12] = % of subjects in this category after 10 topical sessions, regular diet and physical activities kept
[13] = reports among subjects with accentuated venous insufficiency and varicose veins (30% of 139)

## CS(C)(=O)=O [DMSO2, Dimethyl sulphona]
Fat cells
  accumulation of cyclic AMP due to norepinephrine: did not cause any changes
[1]; [7]
  time DMSO2 persisted in plasma: approximately 400 hours
  time at which DMSO2 appeared in plasma: 48 h
[1]; humans, dermal administration of DMSO
  Excretion of DMSO2: 21-23%
[1]; [8]
  duration of urinary excretion of DMSO2: 456 h
  plasmatic levels of DMSO2 after 312 hours: low but still detectable
  time at which urinary excretion of DMSO2 became more significant: approximately 8 hours
  time of maximum plasmatic levels of DMSO2: 60 to 70 h
  total average amount of DMSO2 excreted in urine: 17.8 % dose of DMSO
[1]; humans, oral administration of DMSO
  Excretion of DMSO2: 5-10%

## C[S+](C)[O-] [DMSO, Dimethyl Sulfoxide]
[2]
  activity of cyclic AMP phosphodiesterase, soluble and particulate: inhibited
[3]; DMSO at 80% gram/kilogram per day topically for 14 days and 90 days
  eosinophilia: can cause eosinophilia
[3]; subjects receiving topical solution
  ocular adverse effect: No ocular adverse effect was observed
[3]; [9]
  dizziness: 18%
  dry nasal passages, dry or painful throat and cough: Less than 5%
  headache: 42%
  sedation: 52%
[3]; topical application
  duration of odor similar to garlic in the body: up to 72 hours
Fat cells; after addition of the lipolytic agents, 1.10 M DMSO
  time at which increase of cyclic AMP due to DMSO was detected: 40 s
Fat cells
  increase of lipolysis due to glucagon, norepinephrine or theophylline: potentialized
  lipolysis: increased
  oxidation of glucose stimulated by insulin: decreased
Adipocytes (fat cells)
  amount of adipocytes destroyed per session/application: 50,000-500,000 cells
[1]; estimate of Kolb et al. (1965)
  dose excreted in the air as dimethyl sulfide: approximately 3 % of the dose
[1]; humans, 1 g/kg dermally, fluid form and gel form, 10 subjects each
  dose recovered in urine: less than 10 % of the dose
[1]; humans, dermal administration
  Urinary excretion of DMSO: 30-68 % of the dose
[1]; [8]
  Total urinary excretion of DMSO (average): 13 % dose
  dose accounted for by urinary excretion of DMSO and DMSO2 (average): 30.8 % dose
  duration of urinary excretion of DMSO: 48 h
  time of maximum plasmatic levels of DMSO: 4 to 8 h
[1]; humans, dermally administered
  time of peak of plasmatic levels: 4 to 8 h
[1]; humans, oral administration
  Urinary excretion of DMSO: approximately 13 % of the dose
[1]; humans, orally administered
  time to plasma peak: ≤ 4 h
[1]; [10]
  half-life: 11 to 14 h
  time after which DMSO could not be detected any longer: 36 to 48 h
[1]; humans
  time after which serum levels of DMSO were undetectable: 120 h
[1]; in vivo
  share of excretion via air: less than 3%
Serum cholesterol
  prevention of expected increase of serum cholesterol: 50%
[4]; % of subjects in this category
  General satisfaction after all 10 sessions: Bad: 0%
  General satisfaction after all 10 sessions: Excellent: 72%
  General satisfaction after all 10 sessions: Good: 6%
  General satisfaction after all 10 sessions: Great: 22%
  General satisfaction after all 10 sessions: Regular: 0%
[4]; [11]
  Abdominal circumference reduction: 3.1-5 cm: 39%
  Abdominal circumference reduction: 5.1 cm and more: 29%
  Abdominal circumference reduction: Up to 3 cm: 32%
  Diuresis improvement: Bad: 0%
  Diuresis improvement: Excellent: 28%
  Diuresis improvement: Good: 25%
  Diuresis improvement: Great: 39%
  Diuresis improvement: Regular: 8%
  General efficacy: Bad: 0%
  General efficacy: Excellent: 74%
  General efficacy: Good: 9%
  General efficacy: Great: 17%
  General efficacy: Regular: 0%
  General feeling of improvement: Bad: 0%
  General feeling of improvement: Excellent: 78%
  General feeling of improvement: Good: 10%
  General feeling of improvement: Great: 12%
  General feeling of improvement: Regular: 0%
  Hip circumference reduction: 2.6-4.5 cm: 43%
  Hip circumference reduction: 4.5 cm and more: 26%
  Hip circumference reduction: Up to 2.5 cm: 31%
  Improvement from orange peel skin appearance: Bad: 0%
  Improvement from orange peel skin appearance: Excellent: 76%
  Improvement from orange peel skin appearance: Good: 11%
  Improvement from orange peel skin appearance: Great: 13%
  Improvement from orange peel skin appearance: Regular: 0%
  Mood improvement: Bad: 0%
  Mood improvement: Excellent: 26%
  Mood improvement: Good: 33%
  Mood improvement: Great: 41%
  Mood improvement: Regular: 0%
  Reduced pain in cellulite sites: Bad: 0%
  Reduced pain in cellulite sites: Excellent: 21%
  Reduced pain in cellulite sites: Good: 39%
  Reduced pain in cellulite sites: Great: 27%
  Reduced pain in cellulite sites: Regular: 13%
  Thigh circumference reduction: 2.1-4 cm: 48%
  Thigh circumference reduction: 4.1 cm and more: 24%
  Thigh circumference reduction: Up to 2 cm: 28%
  well-being: Bad: 5%
  well-being: Excellent: 20%
  well-being: Good: 28%
  well-being: Great: 44%
  well-being: Regular: 3%
[4]; [12]
  Weight loss: 2.1-3 kg: 44%
  Weight loss: 3 kg and more: 25%
  Weight loss: Up to 2 kg: 31%
[4]; [13]
  Decreased and whitened macrovaricose veins: 39%
  Decreased pain in legs, arms and hands: 62%
  Decreased swelling and heaviness in the legs: 73%
  Decreased tingling legs and arms: 55%
[5]
  Discontinuation of treatment due to adverse reactions: No patient discontinued the treatment due to adverse reactions
[6]; animals exposed
  teratogenic effects: Teratogenic effects were observed
[6]; studies in animals
  ocular findings in animals: changes to lenses

## CSC [dimethyl sulfide]
Fat cells
  accumulation of cyclic AMP due to norepinephrine: did not cause any changes

Reference: patent US20130253069A1, “Use of DMSO for Destroying Adipocytes and Eliminating Cellulite and Adiposities” (priority 2010, published 2013)
